Experimental data: patent US8362066B2, “Compounds and methods for treating protein folding disorders” (Treventis Corporation, priority 2006, dated 2013)

What was measured:
Format in all cases: biochemical
α-synuclein = α-synuclein (Homo sapiens, UniProt P37840); assay: ThT fluorescence assay, α-synuclein aggregation; details: α-synuclein 4 μM, 96 hours, 37° C.
Protocol: (§1) The following procedures were used. The compounds were examined by circular dichroism (CD) to confirm their anti-amyloidogenic activity and were further evaluated for inhibition of both tau and α-synuclein aggregation in Thioflavin S (ThS) and ThT dye-binding fluorescence assays, respectively. The compounds were also evaluated in a MTT [3-(4,5-dimethylthiazol-2-yl)-2,5-diphenyltetrazolium bromide] cell viability assay (Kaneko, I., et al., J. Neurochem. (1995) 65: 2585-93). Pharmacokinetic (PK) testing was also performed. Compounds administered to mice (IP or PO dosing) had no toxicity at doses up to 300 mg/kg and were present in brain more than four hours after administration.
(§2) Dye-binding ThT/ThS protein aggregation assays for Aβ, tau and α-synuclein were performed as described in Example 8 of US2007/0015813.

Aβ1-40 [1] = target: T1, Aβ1-40 (Homo sapiens, UniProt P05067); assay: ThT fluorescence assay, inhibition of Aβ1-40 aggregation
T1 construct: Both Aβ1-40 and Aβ1-42 were purchased from Anaspec; purchased Anaspec
Protocol: The compounds of the invention were evaluated for activity against Aβ aggregation in a kinetic thioflavin T (ThT) fluorescence assay similar to that of Chalifour, R. J., et al., J. Biol. Chem. (2003) 278: 34874-81. IC50 values for inhibition of Aβ1-40 aggregation in the ThT fluorescence assay for a number compounds of the present invention were determined. Values were calculated by solving the equation y=(m2)/(1+(x/m3)^m4) where y is percent aggregation, x is compound concentration, and m3 is the concentration giving 50% aggregation (i.e. IC50), using KaleidaGraph 4.0 (Synergy Software). Dye-binding ThT/ThS protein aggregation assays for Aβ, tau and α-synuclein were performed as described in Example 8 of US2007/0015813.

Tau 441 [2] = target: T2, Tau 441 (Homo sapiens, UniProt P10636); assay: Tris-tricine SDS-PAGE, Tau 441 self-assembly following ThS aggregation assay; details: FIG. 10
Protocol: (§3) Pre-cast polyacrylamide gels were purchased from NuSep (10-20% Tris-tricine-SDS). These were chosen for their large separation range of 2.5 to 205 kDa. Molecular weight markers were purchased from Sigma Aldrich and diluted twenty fold for individual use. Three buffers were used for this technique: 1) Sample buffer (1.25 mL 0.5 M Tris-HCl (pH 6.8), 2.5 mL glycerol, 2.0 mL 10% SDS, 0.2 mL 0.5% bromophenol blue, 3.55 mL distilled water) which was used as the leading band in the gel. 2) Cathode Buffer (12.11 g tris base, 17.92 g tricine, 1 g SDS, diluted to 1 L with distilled water) which was the inner buffer in the tank assembly. 3) Anode Buffer (5× concentrated: 121.1 g tris base in 1 L of distilled water, pH 8.9 adjusted with concentrated HCl) which was the outer buffer and loaded at 1× concentration. Both Aβ1-40 and Aβ1-42 were purchased from Anaspec.
(§4) Five solutions were required to stain the gels using the silver stain protocol: 1) Fixer 1 (40% methanol, 10% acetic acid, diluted to 1 L with Millie-Q water) 2) Fixer 2 (45 g anhydrous sodium acetate, 300 mL methanol, 5 mL 25% glutaraldehyde, diluted to 1 L with Millie-Q water), 3) a) Silver stain A (15 mL of 25% ammonia solution, 0.8 g sodium hydroxide, diluted to 950 mL with Millie Q water). b) Silver stain B (6 g of silver nitrate in 50 mL Millie Q water). Solution B was then slowly added to solution A. 4) Developer (0.1 g citric acid, 1 mL formaldehyde, diluted to 1 L with Millie-Q water), 5) Stop solution (50 mL acetic acid, diluted to 1 L with Millie-Q water).
(§5) Following a ThT (Aβ1-40) or ThS (Tau 441) aggregation assay, described in Example 8 of US2007/0015813, samples were immediately aspirated and stored in centrifuge tubes. 10 μL of each sample was transferred to a microfuge tube and diluted 1:1 with sample buffer before being incubated (37° C.) for 30 minutes and loaded in the precast gels (15 μL in each well). The gel was then run at 100 V for approximately one hour or until the leading band reached the bottom of the gel.
(§6) Once the gel had finished running, it was removed from its plastic case and placed in a tray for staining. Approximately 200-250 mL volume was used for all the solutions. The gel was first washed with distilled water briefly to rinse off the excess buffer from the tank. It was then immersed in Fixer 1 for 30 minutes. followed by Fixer 2 for 30 minutes. Once the gel was fixed it then underwent three water washes at 10 minutes per wash. After the water washes, the gel was stained for 30 minutes using the silver stain solution. Excess stain was removed using three four-minute water washes. The gel was then immersed in the developer solution to visualize the stain. This took place for approximately 5 minutes or until the desired intensity was reached. To immediately stop the developing process the gel was placed in the stop solution for 10 minutes.

Tau 441 [3] = target: T2, Tau 441; assay: ThS fluorescence assay, Tau 441 aggregation; details: Tau 441 6 μM; compound 50 μM and 10 μM; 24 hours, 37° C., FIG. 15
Protocol: as §1, §2

Aβ1-40 [4] = target: T1, Aβ1-40; assay: Tris-tricine SDS-PAGE, Aβ1-40 self-assembly following ThT aggregation assay; details: FIG. 9
Protocol: as §3, §4, §5, §6

[5] = compound 100 μM and 20 μM, FIG. 16
[6] = compound 50 μM and 10 μM, FIG. 17

T2 sequence (P10636 1-441 isoform P10636-8): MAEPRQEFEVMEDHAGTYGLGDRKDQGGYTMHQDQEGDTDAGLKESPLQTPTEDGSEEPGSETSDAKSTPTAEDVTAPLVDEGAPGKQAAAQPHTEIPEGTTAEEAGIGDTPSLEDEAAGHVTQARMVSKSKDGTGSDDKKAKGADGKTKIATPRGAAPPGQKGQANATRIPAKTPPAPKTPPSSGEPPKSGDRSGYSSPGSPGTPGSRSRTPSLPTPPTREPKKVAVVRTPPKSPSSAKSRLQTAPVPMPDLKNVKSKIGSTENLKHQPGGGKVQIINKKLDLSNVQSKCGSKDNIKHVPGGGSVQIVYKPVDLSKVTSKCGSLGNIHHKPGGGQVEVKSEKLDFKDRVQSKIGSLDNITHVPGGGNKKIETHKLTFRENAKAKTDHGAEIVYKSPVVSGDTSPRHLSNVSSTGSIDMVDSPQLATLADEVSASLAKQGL
T1 sequence (P05067 672-711 limits assumed): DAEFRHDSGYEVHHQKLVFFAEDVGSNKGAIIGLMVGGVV

Compound | IC50 (Aβ1-40 [1]) [µM] | other results
Oc1ccc2[nH]cc(-c3c(O)c(O)cc4ccccc34)c2c1 [QR-0212, 5-hydroxy-3-(2,3-dihydroxyynathalen-1-yl)-1H-indole] | 8.2 | inhibition of α-synuclein aggregation (ThT fluorescence) (α-synuclein; [5]): showed inhibition
Oc1ccc(C=Cc2cc(O)cc(O)c2)cc1 [resveratrol, reference compound] |  | inhibition of α-synuclein aggregation (ThT fluorescence) (α-synuclein; [5]): showed inhibition
COc1ccc2[nH]cc(-c3c[nH]c4ccc(C#N)cc34)c2c1 [QR-0238] | 20.9 | 
Oc1ccc2[nH]cc(CN3CCc4ccccc4C3)c2c1 [QR-0269] | > 200 | 
Oc1ccc2cc(-c3ccc4c(c3)OCCO4)ccc2c1 [QR-0229, 6-(2,3-Dihydrobenzo[b][1,4]dioxin-7-yl)naphthalene-2-ol] | 18.9 | 
N#Cc1ccc2[nH]cc(-c3c[nH]c4ccc(Br)cc34)c2c1 [QR-0240] | 12 | 
COc1ccc(Nc2ccc(Nc3ccc(OC)cc3)cc2)cc1 [QR-0292] | 0.54 | 
O=C(O)c1cccc2c(-c3cc4ccccc4s3)c[nH]c12 [QR-0261] | 10.3 | 
O=C(O)c1cc2cc(-c3cc4ccccc4o3)ccc2c(Br)c1O [QR-0244, 7-(Benzofuran-2-y)-4-bromo-3-hydroxynaphthalene-2-carboxylic acid] | 5.6 | Tau 441 dimer and trimer bands (SDS-PAGE) (Tau 441 [2]): appearance of dimer and trimer bands; effect on Tau 441 self-assembly, monomer fragmentation (SDS-PAGE) (Tau 441 [2]; relative to control): decreased fragmentation of tau 441 monomer; inhibition of Tau 441 aggregation (ThS fluorescence) (Tau 441 [3]): greatly inhibited
N#Cc1ccc2[nH]cc(-c3c(O)c(O)cc4ccccc34)c2c1 [QR-0321] | 9.4 | 
Oc1cc2ccccc2c(-c2ccc3c(c2)OCCO3)c1O [QR-0231, 1-(2,3-Dihydrobenzo[b][1,4]dioxin-7-yl)-2,3-dihydroxynaphthalene] | 27.8 | 
COc1cccc(Nc2cccc(Nc3cccc(OC)c3)c2)c1 [QR-0315] | 5.7 | 
O=C(O)c1cccc2c(-c3cc4ccccc4s3)cn(Cc3ccccc3)c12 [QR-0287, 3-(Benzo[b]thiophen-2-yl)-1-benzyl-1H-indole-7-carboxylic acid] | 19.5 | 
Nc1ccc2[nH]cc(-c3c[nH]c4ccc(Br)cc34)c2c1 [QR-0300] | 1.7 | 
O=C(O)c1ccc2[nH]cc(-c3c[nH]c4ccc(O)cc34)c2c1 [QR-0142] |  | effect on distribution of Aβ1-40 among states of assembly / monomer (SDS-PAGE) (Aβ1-40 [4]): increase in the concentration of Aβ1-40 monomer
N#Cc1ccc2[nH]cc(-c3ccc4cc(O)ccc4c3)c2c1 [QR-0313] | 6.5 | 
Oc1ccc(Nc2cccc(Nc3ccc(O)cc3)c2)cc1 [QR-0325] | 1.03 | 
O=C(O)c1ccc2[nH]cc(-c3c[nH]c4cccc(O)c34)c2c1 [QR-0176] | 1.99 | inhibition of α-synuclein aggregation (ThT fluorescence) (α-synuclein; [5]): showed inhibition
COc1c(C(=O)O)cc2cc(-c3ccc4c(c3)OCCO4)ccc2c1Br [QR-0282, 4-Bromo-7-(2,3-dihydrobenzo[b][1,4]dioxin-7-yl)-3-methoxynaphthalene-2-carboxylic acid] |  | Aβ1-40 dimer band (SDS-PAGE) (Aβ1-40 [4]): appearance of a dimer band; effect on distribution of Aβ1-40 among states of assembly / monomer (SDS-PAGE) (Aβ1-40 [4]): increase in the concentration of Aβ1-40 monomer

Compound | IC50 (Aβ1-40 [1]) [µM] | other results
O=C(O)c1ccc2c(-c3c[nH]c4ccc(O)cc34)c[nH]c2c1 [QR-0253] | 11.8 | 
N#Cc1ccc2[nH]cc(-c3c[nH]c4ccc(O)cc34)c2c1 [QR-0276] | 16.5 | effect on distribution of Aβ1-40 among states of assembly / monomer (SDS-PAGE) (Aβ1-40 [4]): little effect
O=C(O)c1cccc2c(-c3cc4ccccc4o3)cn(Cc3ccccc3)c12 [QR-0284, 3-Benzofuran-2-yl-1-benzyl-1H-indole-7-carboxylic acid] | > 50 | 
Oc1cc2ccccc2c(-c2c[nH]c3ccccc23)c1O [QR-0189] | 19 | inhibition of α-synuclein aggregation (ThT fluorescence) (α-synuclein; [5]): showed inhibition
Oc1ccc(Nc2cccc(Nc3ccc(O)cc3)c2)cc1 [QR-0319] | 2.4 | 
COc1ccc2cc(-c3c[nH]c4ccc(C(=O)O)cc34)ccc2c1 [QR-0216] | 35.5 | 
Oc1cccc(Nc2cccc(Nc3cccc(O)c3)c2)c1 [QR-0326] | 3.3 | 
O=C(O)c1ccc2c(c1)c(-c1ccc3cc(O)ccc3c1)cn2Cc1ccccc1 [QR-0162, 1-Benzyl-3-(6-hydroxynaphthalen-2-yl)-indole-5-carboxylic acid] | 17.5 | inhibition of α-synuclein aggregation (ThT fluorescence) (α-synuclein; [6]): showed inhibition
Oc1ccc2cc(-c3cc4ccccc4o3)ccc2c1Br [QR-0297, 6-(Benzofuran-2-yl)-1-bromonaphthalen-2-ol] | 0.57 | 
Nc1ccc2[nH]cc(-c3c4ccccc4cc4c3[nH]c3ccc(N)cc34)c2c1 [QR-0302] | 3.2 | 
Oc1cc2ccccc2c(-c2cc3ccccc3o2)c1O [QR-0164, 2-(2,3-Dihydroxynaphthalen-1-yl)-benzofuran] | 3 | inhibition of α-synuclein aggregation (ThT fluorescence) (α-synuclein; [6]): showed inhibition
COc1ccccc1Nc1cccc(Nc2ccccc2OC)c1 [QR-0316] | > 50 | 
O=C(O)c1ccc2c(-c3c[nH]c4ccc([N+](=O)[O-])cc34)c[nH]c2c1 [QR-0327] | 11.5 | 
COc1ccc2[nH]cc(-c3c[nH]c4ccc([N+](=O)[O-])cc34)c2c1 [QR-0171] | 5.8 | 
O=C(O)c1cccc2c(-c3c[nH]c4ccc(Br)cc34)c[nH]c12 [QR-0303] | 21 | 
O=C(O)c1cccc2c(-c3ccc4cc(O)ccc4c3)c[nH]c12 [QR-0258, 3-(2-Hydroxynaphthalen-6-yl)-1H-indole-7-carboxylic acid] | 10 | 
O=C(O)c1cccc2c(-c3cc4ccccc4o3)c[nH]c12 [QR-0256] | 17.1 | 
Oc1ccc2cc(-c3c[nH]c4ccc(O)cc34)ccc2c1 [QR-0225, 5-Hydroxy-3-(2-hydroxynaphthalen-6-yl)-1H-indole] | 7 | 
